In patent US11000033B2, “Ketone or oxime compound, and herbicide” (NISSAN CHEMICAL CORPORATION, priority 2014, dated 2021):

Legend:
[1] = system: Echinochloa oryzacola Vasing.; assay: Test Example 1: herbicidal activity, application before weed generation in submerged conditions (symbol A); type: in vivo; conditions: application herbicide amount 320 g/ha
How it was run: (§1)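 Scores run 0 to 5 by herbicidal ratio, with 5 meaning 90% or more and 0 meaning 5% or lower, read 3 weeks after treatment. Compound was applied as a diluted emulsion to the water surface of submerged alluvial-soil pots on the day weed seeds were sown.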

Scirpus juncoides = assay: Test Example 1: herbicidal activity, application before weed generation in submerged conditions (symbol B); type: in vivo; conditions: application herbicide amount 320 g/ha
How it was run: as §1

Setaria viridis [2] = assay: Test Example 4: herbicidal effect by soil treatment (symbol G); type: in vivo; conditions: application herbicide amount 320 g/ha
How it was run: (§2)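 Seeds were sown in sterilized diluvial soil, covered with about 1.5 cm of soil, and the soil surface was sprayed with a water-diluted emulsion of the compound at a predetermined rate. Plants grew in a greenhouse at 25° C. to 30° C.; effects were scored visually 3 weeks after application.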

Amaranthus retroflexus = assay: Test Example 4: herbicidal effect by soil treatment (symbol N); type: in vivo; conditions: application herbicide amount 320 g/ha
How it was run: as §2

Chenopodium album = assay: Test Example 4: herbicidal effect by soil treatment (symbol O); type: in vivo; conditions: application herbicide amount 320 g/ha
How it was run: as §2

Galium spurium = assay: Test Example 4: herbicidal effect by soil treatment (symbol Q); type: in vivo; conditions: application herbicide amount 320 g/ha
How it was run: as §2

Veronica persica = assay: Test Example 4: herbicidal effect by soil treatment (symbol R); type: in vivo; conditions: application herbicide amount 320 g/ha
How it was run: as §2

Setaria viridis [3] = assay: Test Example 5: herbicidal effect by foliage application, plastic box (symbol G); type: in vivo; conditions: 320 g/ha, 3 weeks after application
How it was run: (§3)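 Effect is rated 3 weeks after a foliar spray of water-diluted emulsion concentrate at a predetermined herbicide amount. Plants had grown 14 days in a 25° C. to 30° C. greenhouse from seed in sterilized diluvial soil.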

[4] = system: Echinochloa crus-galli var. crus-galli; assay: Test Example 5: herbicidal effect by foliage application, plastic box (symbol H); type: in vivo; conditions: 320 g/ha, 3 weeks after application
How it was run: as §3

Alopecurus myosuroides = assay: Test Example 5: herbicidal effect by foliage application, plastic box (symbol J); type: in vivo; conditions: 320 g/ha, 3 weeks after application
How it was run: as §3

| SMILES | Herbicidal effect grade, A: Echinochloa oryzacola Vasing. [1] | Herbicidal effect grade, B: Scirpus juncoides (Scirpus juncoides) | G: Setaria viridis, herbicidal effect grade (Setaria viridis [2]) | N: Amaranthus retroflexus, herbicidal effect grade (Amaranthus retroflexus) | O: Chenopodium album, herbicidal effect grade (Chenopodium album) | Q: Galium spurium, herbicidal effect grade (Galium spurium) | R: Veronica persica, herbicidal effect grade (Veronica persica) | G: Setaria viridis, herbicidal effect (criteria of Test Example 1) (Setaria viridis [3]) | H: Echinochloa crus-galli var. crus-galli, herbicidal effect (criteria of Test Example 1) [4] | J: Alopecurus myosuroides, herbicidal effect (criteria of Test Example 1) (Alopecurus myosuroides) | melting point [°C] | Herbicidal effect grade, G: Setaria viridis (Setaria viridis [2]) | Herbicidal effect grade, O: Chenopodium album (Chenopodium album) | Herbicidal effect grade, Q: Galium spurium (Galium spurium) | Herbicidal effect grade, R: Veronica persica (Veronica persica) |
| --- | --- | --- | --- | --- | --- | --- | --- | --- | --- | --- | --- | --- | --- | --- | --- |
| CON=C(C)CC1CC(O)=C(c2c(C)cc(OC)cc2C)C1=O (centres unmarked) [6-055] | 4 (Herbicidal ratio of 70% or higher and lower than 90%) | 1 (Herbicidal ratio of 5% or higher and lower than 20%) | 5 (Herbicidal ratio of 90% or more (almost completely withered)) | 0 (Herbicidal ratio of 5% or lower (almost no effect)) | 0 (Herbicidal ratio of 5% or lower (almost no effect)) | 0 (Herbicidal ratio of 5% or lower (almost no effect)) | 0 (Herbicidal ratio of 5% or lower (almost no effect)) | 5 (Herbicidal ratio of 90% or more (almost completely withered)) | 5 (Herbicidal ratio of 90% or more (almost completely withered)) | 5 (Herbicidal ratio of 90% or more (almost completely withered)) | 141 to 143 |  |  |  |  |
| CON=C(C)CC1CC(O)=C(c2c(C)cc(Br)cc2OC)C1=O (centres unmarked) [6-076, 2-(4-bromo-2-methoxy-6-methylphenyl)-3-hydroxy-5-{2-(methoxyimino)propyl}cyclopent-2-enone] | 5 (Herbicidal ratio of 90% or more (almost completely withered)) | 3 (Herbicidal ratio of 40% or higher and lower than 70%) | 5 (Herbicidal ratio of 90% or more (almost completely withered)) | 1 (Herbicidal ratio of 5% or higher and lower than 20%) | 0 (Herbicidal ratio of 5% or lower (almost no effect)) | 0 (Herbicidal ratio of 5% or lower (almost no effect)) | 0 (Herbicidal ratio of 5% or lower (almost no effect)) | 5 (Herbicidal ratio of 90% or more (almost completely withered)) | 5 (Herbicidal ratio of 90% or more (almost completely withered)) | 5 (Herbicidal ratio of 90% or more (almost completely withered)) | 150 to 153 |  |  |  |  |
| CON=C(C)CC1CC(O)=C(c2c(F)cc(-c3ccccc3)cc2OC)C1=O (centres unmarked) [6-107] | 5 (Herbicidal ratio of 90% or more (almost completely withered)) | 5 (Herbicidal ratio of 90% or more (almost completely withered)) |  |  |  |  |  | 5 (Herbicidal ratio of 90% or more (almost completely withered)) | 5 (Herbicidal ratio of 90% or more (almost completely withered)) | 5 (Herbicidal ratio of 90% or more (almost completely withered)) | 175 to 177 | 5 (Herbicidal ratio of 90% or more (almost completely withered)) | 4 (Herbicidal ratio of 70% or higher and lower than 90%) | 2 (Herbicidal ratio of 20% or higher and lower than 40%) | 4 (Herbicidal ratio of 70% or higher and lower than 90%) |
